In paper PMC3830718 (Toxicology and applied pharmacology, 2013):
Read-outs that look alike come from different tables or passages of the source.

Experiments:
[1] = format: in vivo, mice; details: mouse, kidney, intraperitoneal, 7.5 mg/kg, Metformin accumulation in the kidney
in vivo = details: mouse, AUC0–120min of metformin
mouse Mate1 (mMate1) = mouse Mate1 (mMate1) (Mus musculus, UniProt Q8K0H1); test: Inhibition of metformin accumulation in HEK-293 cells stably expressing mMate1; format: cell-based
Chain of mouse Mate1 (mMate1) (Q8K0H1 whole entry): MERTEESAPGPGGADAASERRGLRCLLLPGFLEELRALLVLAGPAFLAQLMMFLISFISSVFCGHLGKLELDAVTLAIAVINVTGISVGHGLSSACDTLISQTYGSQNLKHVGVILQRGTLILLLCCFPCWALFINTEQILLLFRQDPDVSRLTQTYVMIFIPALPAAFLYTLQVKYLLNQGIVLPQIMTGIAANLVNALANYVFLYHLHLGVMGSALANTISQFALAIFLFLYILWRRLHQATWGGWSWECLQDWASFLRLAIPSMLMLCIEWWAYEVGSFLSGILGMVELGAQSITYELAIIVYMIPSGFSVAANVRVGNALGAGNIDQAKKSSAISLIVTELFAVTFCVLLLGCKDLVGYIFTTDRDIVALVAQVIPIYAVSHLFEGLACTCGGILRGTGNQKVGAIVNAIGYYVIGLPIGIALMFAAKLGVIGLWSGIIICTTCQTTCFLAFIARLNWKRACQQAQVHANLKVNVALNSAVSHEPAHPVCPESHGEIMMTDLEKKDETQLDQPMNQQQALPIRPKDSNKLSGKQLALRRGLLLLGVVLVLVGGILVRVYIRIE

mouse Oct2 (mOct2) = target: T1, mouse Oct2 (mOct2) (Mus musculus, UniProt O70577); test: Inhibition of metformin accumulation in HEK-293 cells stably expressing mOct2; format: cell-based
T1 sequence (O70577 1-553): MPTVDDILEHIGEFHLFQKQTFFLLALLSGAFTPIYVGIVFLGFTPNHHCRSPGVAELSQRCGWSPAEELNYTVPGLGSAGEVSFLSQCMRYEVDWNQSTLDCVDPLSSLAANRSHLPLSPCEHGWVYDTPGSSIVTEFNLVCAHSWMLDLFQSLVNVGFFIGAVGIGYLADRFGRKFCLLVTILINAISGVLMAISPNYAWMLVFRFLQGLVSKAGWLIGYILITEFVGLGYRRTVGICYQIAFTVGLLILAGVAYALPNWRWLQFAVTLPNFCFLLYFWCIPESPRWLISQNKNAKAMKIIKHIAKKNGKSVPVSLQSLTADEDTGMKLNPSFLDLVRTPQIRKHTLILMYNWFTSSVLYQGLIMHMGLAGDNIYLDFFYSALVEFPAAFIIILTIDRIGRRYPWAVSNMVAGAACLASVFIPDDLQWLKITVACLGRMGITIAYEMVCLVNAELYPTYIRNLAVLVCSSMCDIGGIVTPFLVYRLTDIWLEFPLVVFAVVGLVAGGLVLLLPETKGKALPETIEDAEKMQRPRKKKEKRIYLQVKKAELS

[2] = mouse, in vivo, 10 mg/kg

Row | Structure (SMILES) | concentration at 30 min ([1]; Mate1−/− mice, saline (Fig. 4A)) [ng/g] | concentration at 30 min ([1]; wild-type mice, saline, genotype study (Fig. 4A)) [ng/g] | AUC(0-t) (in vivo) [ng·h/mL] | Ki (mouse Mate1 (mMate1)) [µM] | Ki (mouse Oct2 (mOct2)) [µM] | Effect on hepatic platinum accumulation [2]
1 | CN(C)C(=N)N=C(N)N [metformin] | 917 ± 89.6 | 114 ± 21.8 | 2030 | – | – | –
2 | Cc1nccn1CC1CCc2c(c3ccccc3n2C)C1=O (stereo not drawn) [ondansetron] | – | – | – | 0.07 | 3.5 | did not observe a significant effect
